Calls of active or inactive are those of the source.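 How the source made its calls: active means tumour findings in long-term animal cancer tests in more than one sex, species or organ; inactive means no tumour finding and more than one negative test.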
Experiment: DSSTox (CPDBAS) Carcinogenic Potency Database Summary MultiCellCall Results
Conditions: animal carcinogenicity bioassays, multi-cell call summary
How it was run: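 Summary call drawn from chronic long-term cancer bioassays in rats, mice, hamsters, dogs and nonhuman primates, using the most positive result per sex-species. Score: multispecies=50, multisex=30, multisite=20, summed for combinations.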
For `CC(C)COC(=O)c1ccc(O)cc1`, the outcome was “inactive; multisex inactive”.
For `CN(N=O)c1ccccc1`, the outcome was “active; multisex active”.
In the case of `O=C1CCc2ccccc2O1`, the outcome is reported as “active; multisite active; multisex active; multispecies active”.
With `CNC(=O)Oc1cccc2c1OC(C)(C)C2` the outcome was “inactive; multisex inactive”.
In the case of `COC(=O)C1=C(C)NC(C)=C(C(=O)OCCN2CCN(C(c3ccccc3)c3ccccc3)CC2)C1c1cccc([N+](=O)[O-])c1` (stereo not given), the outcome is reported as “inactive; multisex inactive; multispecies inactive”.
In the case of `CCN(N=O)C(=O)NCCO`, the outcome is reported as “active; multisite active; multisex active; multispecies active”.
In the case of `O=[N+]([O-])O`, the outcome is reported as “inactive; multisex inactive”.
For `COC(=O)NN`, the outcome was “inactive; multisex inactive”.
For `CN1CCC[C@H]1c1cccnc1`, the outcome was “inactive; multisex inactive”.
For `Cn1nc(CO)nc1NCCCOc1cccc(CN2CCCCC2)c1`, the outcome was “active; multisex active”.
In the case of `CN(Cc1cnc2nc(N)nc(N)c2n1)c1ccc(C(=O)N[C@@H](CCC(=O)O)C(=O)O)cc1`, the outcome is reported as “inactive; multisex inactive; multispecies inactive”.
With `Oc1ccccc1O` the outcome was “active; multisex active; multispecies active”.
In the case of `CN(N=O)C(=O)NCCC[C@H](N)C(=O)O`, the outcome is reported as “active; multisite active; multisex active”.
In the case of `[Na+]`, the outcome is reported as “inactive; multisex inactive; multispecies inactive”.
With `COc1ccc([N+](=O)[O-])cc1N` the outcome was “active; multisite active; multisex active; multispecies active”.
With `O=C1c2ccccc2C(=O)c2ccccc21` the outcome was “inactive; multisex inactive”.
In the case of `Nc1ccc2c(c1)C(=O)c1ccccc1C2=O`, the outcome is reported as “active; multisite active; multisex active; multispecies active”.
For `CC(Cl)(Cl)Cl`, the outcome was “inactive; multisex inactive; multispecies inactive”.
With `CC(Oc1c(Cl)cccc1Cl)C1=NCCN1` (stereo not given) the outcome was “inactive; multisex inactive”.
With `NC(=O)N(CC(=O)O)N=O` the outcome was “active; multisite active; multisex active”.
In the case of `CC(=O)NN`, the outcome is reported as “active; multisex active”.
With `COP(=S)(OC)Oc1ccc(SC)c(C)c1` the outcome was “inactive; multisex inactive; multispecies inactive”.
In the case of `FC(F)OC(Cl)C(F)(F)F` (stereo not given), the outcome is reported as “inactive; multisex inactive”.
In the case of `C=CCOC(=O)CC(C)C`, the outcome is reported as “active; multisex active; multispecies active”.
With `CCCN=[N+]([O-])CCC` the outcome was “active; multisite active”.
In the case of `O=[N+]([O-])/C=C/c1ccccc1`, the outcome is reported as “inactive; multisex inactive; multispecies inactive”.
With `C=Cc1ccc(C)cc1` the outcome was “inactive; multisex inactive”.
In the case of `CCN(CC)CC#CC(C)(C)OC(=O)C(O)(c1ccccc1)C1CCCCC1` (stereo not given), the outcome is reported as “inactive; multisex inactive; multispecies inactive”.
In the case of `O=S1(=O)CCCO1`, the outcome is reported as “active; multisite active; multisex active”.
With `CC1CN(N=O)CC(C)O1` (stereo not given) the outcome was “active; multisite active; multisex active”.
With `O=P(OCCCl)(OCCCl)OCCCl` the outcome was “active; multisite active; multisex active; multispecies active”.
In the case of `Nc1ccc(Oc2ccc(N)cc2)cc1`, the outcome is reported as “active; multisite active; multisex active; multispecies active”.
In the case of `Nc1ccccc1`, the outcome is reported as “active; multisite active; multisex active”.
In the case of `Cc1c(N(C)CS(=O)(=O)O)c(=O)n(-c2ccccc2)n1C`, the outcome is reported as “active; multisex active”.
For `O=[N+]([O-])c1ccc(-c2nc(N(CCO)CCO)c3ccccc3n2)s1`, the outcome was “active; multisite active”.
For `CCCCCCN(N=O)C(N)=O`, the outcome was “active; multisite active; multisex active”.
With `Nc1ccc(Cc2ccc(N)c(Cl)c2)cc1Cl` the outcome was “active; multisite active; multisex active; multispecies active”.
For `C/C=C/C=C/C=O`, the outcome was “active; multisex active; multispecies active”.
For `CCNc1nc(Cl)nc(NCC)n1`, the outcome was “inactive; multisex inactive”.
With `CC(=O)CN(N=O)C(N)=O` the outcome was “active; multisex active”.
For `Cc1[nH]cnc1CSCCN=C(NC#N)N(C)N=O`, the outcome was “inactive; multisex inactive; multispecies inactive”.
In the case of `CN(C)c1ccc(C(=N)c2ccc(N(C)C)cc2)cc1`, the outcome is reported as “active; multisex active; multispecies active”.
For `Cc1ccc(Cc2cnc(NCCSCc3ccc(CN(C)C)o3)[nH]c2=O)cn1`, the outcome was “active; multisex active”.
For `CCC(=O)C(CC(C)N(C)C)(c1ccccc1)c1ccccc1` (stereo not given), the outcome was “inactive; multisex inactive; multispecies inactive”.
With `CCCN(N)C=O` the outcome was “active; multisite active; multisex active”.
In the case of `ClCC(Br)CBr` (stereo not given), the outcome is reported as “active; multisite active; multisex active; multispecies active”.
In the case of `Nc1ccc2ccccc2c1S(=O)(=O)O`, the outcome is reported as “inactive; multisex inactive”.
In the case of `C1C2OC2C2C1C1CC2C2OC12` (stereo not given), the outcome is reported as “inactive; multisex inactive; multispecies inactive”.
For `C=CF`, the outcome was “active; multisite active; multisex active; multispecies active”.
In the case of `CN(CCCC(O)c1cccnc1)N=O` (stereo not given), the outcome is reported as “active; multisite active”.
In the case of `COC(=O)C(C)(C)Oc1ccc(-c2ccc(Cl)cc2)cc1`, the outcome is reported as “active; multisite active; multisex active; multispecies active”.
In the case of `CCCCCCCCCCCC[N+](C)(C)[O-]`, the outcome is reported as “inactive; multisex inactive”.
With `Cn1cc(C(=O)[C@@H]2CCc3nc[nH]c3C2)c2ccccc21` the outcome was “inactive; multisex inactive; multispecies inactive”.
For `Cc1ccc(S(=O)(=O)OCCN(C)N=O)cc1`, the outcome was “active; multisite active; multisex active”.
In the case of `COC(C(=O)O)c1ccccc1` (stereo not given), the outcome is reported as “inactive; multisex inactive”.
In the case of `CCCCCN(CCCCC)N=O`, the outcome is reported as “active; multisex active”.
For `C[C@@H]1O[C@@]2(CS1)CN1CCC2CC1`, the outcome was “inactive; multisex inactive”.
With `O=C1C(O)N=C(c2ccccc2F)c2cc(Cl)ccc2N1CCO` (stereo not given) the outcome was “inactive; multisex inactive”.
For `C=CC(=O)OCC`, the outcome was “active; multisex active; multispecies active”.
With `CCN(N=O)C(N)=O` the outcome was “active; multisite active; multisex active”.
For `COc1ccccc1N`, the outcome was “active; multisite active; multisex active; multispecies active”.
With `Cc1c(COC(=O)C2C(/C=C(\Cl)C(F)(F)F)C2(C)C)cccc1-c1ccccc1` (stereo not given) the outcome was “inactive; multisex inactive”.
In the case of `Cc1cc2c(nc1N)[nH]c1ccccc12`, the outcome is reported as “active; multisite active; multisex active; multispecies active”.
For `O=C1c2cccc(O)c2C(=O)c2c(O)cccc21`, the outcome was “active; multisite active; multispecies active”.
With `OC[P+](CO)(CO)CO` the outcome was “inactive; multisex inactive; multispecies inactive”.
In the case of `CCCCC(CC)COC(=O)COc1ccc(Cl)cc1Cl` (stereo not given), the outcome is reported as “inactive; multisex inactive”.
With `CN(C)C(=O)NC1CC2CC1C1CCCC21` (stereo not given) the outcome was “inactive; multisex inactive”.
In the case of `C=C/C1=C/[C@H](C)[C@](C)(OC(C)=O)C(=O)OCC2=CC[N+]3(C)CC[C@@H](OC1=O)C23[O-]` (stereo not given in full), the outcome is reported as “active; multisite active”.
With `CCOc1ccc2c(c1)C(C)=CC(C)(C)N2` the outcome was “inactive; multisex inactive”.
For `CCNC(=O)Nc1ncc([N+](=O)[O-])s1`, the outcome was “active; multisite active; multisex active; multispecies active”.
For `CN1C2CC[C@@H]1CC(NC(=O)c1cc(Cl)cc3c1OC(C)(C)C3)C2` (stereo not given in full), the outcome was “inactive; multisex inactive”.
For `Cn1c(N)nc2ncc(-c3ccccc3)cc21`, the outcome was “active; multisite active; multisex active; multispecies active”.
In the case of `Nc1ccc(N=Nc2ccccc2)c(N)n1`, the outcome is reported as “active; multisite active; multisex active; multispecies active”.
In the case of `N[C@@H](CCC(=O)NNc1ccc(CO)cc1)C(=O)O`, the outcome is reported as “inactive; multisex inactive”.
In the case of `C/C=C/C(=O)Oc1c(C(C)CCCCCC)cc([N+](=O)[O-])cc1[N+](=O)[O-]` (stereo not given), the outcome is reported as “inactive; multisex inactive”.
In the case of `Nc1ccc(Cl)cc1N`, the outcome is reported as “active; multisite active; multisex active; multispecies active”.
For `Nc1ccc(-c2ccc(N)c(N)c2)cc1N`, the outcome was “active; multisite active; multispecies active”.
In the case of `CN(C)C(=S)S`, the outcome is reported as “inactive; multisex inactive”.
With `CC(O)C(=O)O` (stereo not given) the outcome was “inactive; multisex inactive”.
With `CC(N)=S` the outcome was “active; multisex active; multispecies active”.
In the case of `O1[As]2O[As]3O[As]1O[As](O2)O3`, the outcome is reported as “inactive; multisex inactive”.
In the case of `COc1ccc(O)c(C(C)(C)C)c1`, the outcome is reported as “active; multisex active; multispecies active”.
With `ClC1=C(Cl)[C@]2(Cl)[C@@H]3[C@H]4C[C@H]([C@@H]5O[C@H]45)[C@@H]3[C@@]1(Cl)C2(Cl)Cl` the outcome was “inactive; multisex inactive; multispecies inactive”.
In the case of `CC(Cc1ccccc1)NN` (stereo not given), the outcome is reported as “inactive; multisex inactive”.
With `CCNC(=O)N(CCN(C)C)N=O` the outcome was “active; multisite active”.
In the case of `S=[Se]`, the outcome is reported as “active; multisite active; multisex active; multispecies active”.
In the case of `C=CCO`, the outcome is reported as “inactive; multisex inactive”.
In the case of `OCCN(CCO)CCO`, the outcome is reported as “active; multisex active”.
With `CNC(=O)O/N=C/C(C)(C)SC` the outcome was “inactive; multisex inactive; multispecies inactive”.
In the case of `Cc1ccccc1[N+](=O)[O-]`, the outcome is reported as “active; multisite active; multisex active; multispecies active”.
For `CC(=O)C1C(=O)C=C(C)OC1=O` (stereo not given), the outcome was “inactive; multisex inactive”.
For `O=C(O)CNCC(=O)O`, the outcome was “inactive; multisex inactive”.
For `CNCc1ccc(CSCCNC(=NCC(O)c2ccc(O)cc2)NS(C)(=O)=O)o1` (stereo not given), the outcome was “active; multisex active”.
In the case of `CN(C)Nc1nc(-c2ccc([N+](=O)[O-])o2)cs1`, the outcome is reported as “active; multisite active”.
With `O=NN(CCCl)C(=O)N[C@@H]1[C@@H](O)[C@H](O)[C@@H](CO)O[C@@H]1O` the outcome was “active; multisex active”.
With `C=CCc1ccc(OC)c(OC)c1` the outcome was “active; multisite active; multisex active; multispecies active”.
For `CC(N)Cc1ccccc1` (stereo not given), the outcome was “inactive; multisex inactive; multispecies inactive”.
With `ClCc1ccccn1` the outcome was “inactive; multisex inactive; multispecies inactive”.
For `C=CCNN`, the outcome was “active; multisite active; multisex active”.
In the case of `NNC=O`, the outcome is reported as “active; multisex active”.
With `CC(=O)NNc1ccc(CO)cc1` the outcome was “active; multisite active; multisex active”.
In the case of `CCN(CC)C(=S)S`, the outcome is reported as “inactive; multisex inactive; multispecies inactive”.
In the case of `CN1C(C(=O)Nc2ccccn2)=C(O)c2sc(Cl)cc2S1(=O)=O`, the outcome is reported as “inactive; multisex inactive”.
With `COc1cc2c(cc1N)oc1ccccc12` the outcome was “active; multisite active; multisex active”.
In the case of `CC1=CC(=C(c2ccc(N)cc2)c2ccc(N)cc2)C=CC1=N`, the outcome is reported as “inactive; multisex inactive; multispecies inactive”.
